# Structures can show the parent of a compound that is named as a salt.
# Assay: hygroscopicity of the solid form
# Type: physicochemical
# Conditions: solid substance, amorphous free base versus crystalline p-toluene sulfonic acid salt
Compound,hygroscopicity,hygroscopicity (listed as p-toluene sulfonic salt)
"CC(=O)O[C@@H]1C[C@@H](CO)O[C@H]1n1c(=O)sc2cnc(N)nc21 [Formula 5, 5-amino-3-(2′-O-acetyl-3′-deoxy-beta-D-ribofuranosyl)-3H-thiazolo[4,5-d]pyrimidin-2-one]",hydroscopic,
"CC(=O)O[C@@H]1C[C@@H](CO)O[C@H]1n1c(=O)sc2cnc(N)nc21 [Formula (1), p-toluene sulfonic acid salt of 5-amino-3-(2′-O-acetyl-3′-deoxy-beta-D-ribofuranosyl)-3H-thiazolo[4,5-d]pyrimidin-2-one]",,only slightly hygroscopic

# Reference: patent US7928085B2, “P-toluene sulfonic acid salt of 5-amino-3-(2′-O-acetyl-3′-deoxy-β-D-ribofuranosyl)-3H-thiazole[4,5-d]pyrimidine-2-one and methods for preparation” (Anadys Pharmaceuticals, Inc., priority 2006, dated 2011)
